The target in test [1] is T1, STING (Homo sapiens, UniProt Q86WV6, G230A/H232R/R293Q/R71H).
T1 construct: host or cells: THP-1 and THP-1 Lucia ISG cells
Put plainly: Interferon-β induction: THP-1 Lucia ISG reporter cell line. It counts as cell-based. The settings on record: THP-1 Lucia ISG cells, 24 hours incubation, luciferase reporter; read-out: THP-1 Lucia ISG Cells IFN-β EC50. An outline of the steps: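 THP-1 Lucia ISG cells (IRF-inducible secreted luciferase) treated 24 h with serially diluted compounds, final 0.5% DMSO, at 37 °C. Supernatant luminescence read with QUANTI-Luc, normalized to % effect between a maximal STING agonist positive control and DMSO.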

The target in test [2] is T1, STING. Put plainly: Phosphorylation of IRF3: THP-1 cell ELISA. Format: cell-based. The settings on record: THP-1 cells, 3 hours incubation, phospho-IRF3 ELISA; read-out: THP-1 CELL P-IRF3 EC50. An outline of the steps:
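THP-1 cells (10^4/well, seeded overnight) were treated with serially diluted compounds (final 0.5% DMSO) for 3 h. Lysates were analysed by sandwich ELISA (anti-IRF3 capture, anti-phospho-IRF3 detection, HRP luminescence). Signal was normalized as % effect between DMSO and a maximal STING agonist control.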

Test [3] deals with R232-STING (Homo sapiens, UniProt Q86WV6, H232R). The test can be described thus: biochemical.
Chain of R232-STING (Q86WV6 155-341 H232R): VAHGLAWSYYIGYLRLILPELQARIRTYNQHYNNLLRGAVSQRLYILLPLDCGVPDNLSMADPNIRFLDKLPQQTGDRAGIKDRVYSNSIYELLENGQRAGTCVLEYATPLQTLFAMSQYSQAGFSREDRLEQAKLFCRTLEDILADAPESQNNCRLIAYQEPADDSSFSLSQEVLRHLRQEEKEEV

The structures appear in SMILES notation.

What is called EC50 is the concentration that produces a half-maximal response. One may read the Ki as the equilibrium dissociation constant of an inhibitor or competing ligand from its target.

T1 sequence (Q86WV6 whole entry R71H/G230A/H232R/R293Q): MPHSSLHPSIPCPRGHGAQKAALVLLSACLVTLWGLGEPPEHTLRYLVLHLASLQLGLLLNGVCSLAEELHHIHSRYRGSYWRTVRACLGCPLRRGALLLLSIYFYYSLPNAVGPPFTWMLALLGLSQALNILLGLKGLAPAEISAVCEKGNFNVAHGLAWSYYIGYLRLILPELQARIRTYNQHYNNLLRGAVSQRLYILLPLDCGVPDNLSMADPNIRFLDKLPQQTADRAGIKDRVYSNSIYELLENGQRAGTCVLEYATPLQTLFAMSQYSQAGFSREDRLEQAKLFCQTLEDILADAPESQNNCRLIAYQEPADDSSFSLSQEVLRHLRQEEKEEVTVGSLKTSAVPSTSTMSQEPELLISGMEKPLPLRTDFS

For the compound `CCn1nc(C)cc1-c1nnc(-c2cc(C(N)=O)cc3c2cnn3CCN(C)C)[nH]1` [YY04, 1-[2-(dimethylamino)ethyl]-4-[5-(1-ethyl-3-methyl-1H-pyrazol-5-yl)-4H-1,2,4-triazol-3-yl]-1H-indazole-6-carboxamide], the EC50 in test [1] and in test [2] was above 100 µM each time. The compound also gave a Ki in test [3] above 638 nM.
Consider `Cc1nn(CCC(=O)O)c(-c2n[nH]c(-c3cc(C(N)=O)cc4c3cnn4C)n2)c1Cl` [YY05, 3-{5-[5-(6-carbamoyl-1-methyl-1H-indazol-4-yl)-1H-1,2,4-triazol-3-yl]-4-chloro-3-methyl-1H-pyrazol-1-yl}propanoic acid], for which the EC50 in test [1] and in test [2] was above 100 µM throughout. The inhibition constant (Ki) in test [3] was determined as 396 nM.
Consider `Cc1nn(CCC(=O)O)c(-c2n[nH]c(-c3cc(C(N)=O)cc4c3cnn4C)n2)c1F` [YY06, 3-{5-[5-(6-carbamoyl-1-methyl-1H-indazol-4-yl)-1H-1,2,4-triazol-3-yl]-4-fluoro-3-methyl-1H-pyrazol-1-yl}propanoic acid], for which the EC50 in test [1] and in test [2] was above 100 µM each time. The same compound showed a Ki in test [3] of 47.1 nM.
`CCn1nc(C)cc1-c1nnc(-c2cc(C(N)=O)cc3c2cnn3[C@H](C)CN2CCOCC2)[nH]1` [YY07, 4-[5-(1-ethyl-3-methyl-1H-pyrazol-5-yl)-4H-1,2,4-triazol-3-yl]-1-[(2R)-1-(morpholin-4-yl)propan-2-yl]-1H-indazole-6-carboxamide]: the EC50 in test [1] and in test [2] was above 100 µM in each case. In test [3], this compound showed a Ki of 337 nM.
For `CCn1nc(C)cc1-c1nnc(-c2cc(C(N)=O)cc3c2cnn3CCN2CCC(C#N)CC2)[nH]1` [YY09, 1-[2-(4-cyanopiperidin-1-yl)ethyl]-4-[5-(1-ethyl-3-methyl-1H-pyrazol-5-yl)-4H-1,2,4-triazol-3-yl]-1H-indazole-6-carboxamide], the EC50 in test [1] and in test [2] was above 100 µM throughout. This compound also yielded a Ki in test [3] of 141 nM.
`CCn1nc(C)cc1-c1nnc(-c2cc(C(N)=O)cc3c2cnn3CC2(C)CC(OC)CN2C)[nH]1` (stereo not drawn) [YY10, 4-[5-(1-ethyl-3-methyl-1H-pyrazol-5-yl)-4H-1,2,4-triazol-3-yl]-1-[(4-methoxy-1,2-dimethylpyrrolidin-2-yl)methyl]-1H-indazole-6-carboxamide]: the EC50 in test [1] and in test [2] was above 100 µM in each case. In addition, in test [3], the affinity corresponds to a Ki of 237 nM.
With `CCn1nc(C)cc1-c1nnc(-c2cc(C(N)=O)cc3c2cnn3CCN2CCC(OC)CC2)[nH]1` [YY11, 4-[5-(1-ethyl-3-methyl-1H-pyrazol-5-yl)-4H-1,2,4-triazol-3-yl]-1-[2-(4-methoxypiperidin-1-yl)ethyl]-1H-indazole-6-carboxamide], the EC50 in test [1] and in test [2] was above 100 µM throughout. The Ki in test [3] was 529 nM.
Regarding `CCn1nc(C)c(F)c1-c1n[nH]c(-c2cc(C(N)=O)cc3c2cnn3CCCN)n1` [YY12, 1-(3-aminopropyl)-4-[3-(1-ethyl-4-fluoro-3-methyl-1H-pyrazol-5-yl)-1H-1,2,4-triazol-5-yl]-1H-indazole-6-carboxamide], the EC50 in test [1] and in test [2] was above 100 µM throughout. Also, the affinity in test [3], expressed as Ki, was 722 nM.
As to `CCn1nc(C)cc1-c1nnc(-c2cc(C(N)=O)cc3c2cnn3C2CC3CNCC3C2)[nH]1` (stereo not drawn) [YY13, 4-[5-(1-ethyl-3-methyl-1H-pyrazol-5-yl)-4H-1,2,4-triazol-3-yl]-1-(octahydrocyclopenta[c]pyrrol-5-yl)-1H-indazole-6-carboxamide], the EC50 in test [1] and in test [2] was above 100 µM each time. The same compound displayed an inhibitory constant (Ki) in test [3] of 431 nM.
Regarding `CCn1nc(C)cc1-c1nnc(-c2cc(C(N)=O)cc3c2cnn3[C@@H]2CCNC2)[nH]1` [YY14, 4-[5-(1-ethyl-3-methyl-1H-pyrazol-5-yl)-4H-1,2,4-triazol-3-yl]-1-[(3R)-pyrrolidin-3-yl]-1H-indazole-6-carboxamide], the EC50 in test [1] and in test [2] was above 100 µM each time. The same compound came in with an inhibition constant (Ki) in test [3] of 484 nM.
In the case of `CCn1nc(C)cc1-c1nnc(-c2cc(C(N)=O)cc3c2cnn3CCCCC2CCNCC2)[nH]1` [YY15, 4-[5-(1-ethyl-3-methyl-1H-pyrazol-5-yl)-4H-1,2,4-triazol-3-yl]-1-[4-(piperidin-4-yl)butyl]-1H-indazole-6-carboxamide], the EC50 in test [1] and in test [2] was above 100 µM in each case. In test [3], this compound showed a Ki of 329 nM.
For `CCn1nc(C)cc1-c1nnc(-c2cc(C(N)=O)cc3c2cnn3Cc2nc3c(o2)CNC3)[nH]1` [YY16, 1-[(5,6-dihydro-4H-pyrrolo[3,4-d][1,3]oxazol-2-yl)methyl]-4-[5-(1-ethyl-3-methyl-1H-pyrazol-5-yl)-4H-1,2,4-triazol-3-yl]-1H-indazole-6-carboxamide], the EC50 in test [1] and in test [2] was above 100 µM throughout. The compound also had a Ki in test [3] of 369 nM.
In the case of `CCn1nc(C)cc1-c1nnc(-c2cc(C(N)=O)cc3c2cnn3C2CC3(CCNC3)C2)[nH]1` (stereo not drawn) [YY17, 1-(6-azaspiro[3.4]octan-2-yl)-4-[5-(1-ethyl-3-methyl-1H-pyrazol-5-yl)-4H-1,2,4-triazol-3-yl]-1H-indazole-6-carboxamide], the EC50 in test [1] and in test [2] was above 100 µM throughout. The compound further registered a Ki in test [3] of 376 nM.
For the compound `CCn1nc(C)cc1-c1nnc(-c2cc(C(N)=O)cc3c2cc(C(=O)O)n3C)[nH]1` [YY19, 6-carbamoyl-4-[5-(1-ethyl-3-methyl-1H-pyrazol-5-yl)-4H-1,2,4-triazol-3-yl]-1-methyl-1H-indole-2-carboxylic acid], the EC50 in test [1] and in test [2] was above 100 µM in each case. This compound also displayed a Ki in test [3] of 175 nM.
For the compound `Cc1cc(-c2n[nH]c(-c3cc(C(N)=O)cc4c3cnn4C(F)F)n2)n(CCC(=O)O)n1` [YY20, 3-(5-{5-[6-carbamoyl-1-(difluoromethyl)-1H-indazol-4-yl]-1H-1,2,4-triazol-3-yl}-3-methyl-1H-pyrazol-1-yl)propanoic acid], the EC50 in test [1] and in test [2] was above 100 µM each time. In test [3], this compound registered a Ki of 171 nM.
Turning to `Cc1cc(-c2n[nH]c(-c3c(F)c(C(N)=O)cc4c3cnn4C)n2)n(CCC(=O)O)n1` [YY21, 3-{5-[5-(6-carbamoyl-5-fluoro-1-methyl-1H-indazol-4-yl)-1H-1,2,4-triazol-3-yl]-3-methyl-1H-pyrazol-1-yl}propanoic acid], the EC50 in test [1] and in test [2] was above 100 µM in each case. The Ki in test [3] is above 891 nM.
Turning to `CCn1nc(C)cc1-c1n[nH]c(-c2cc(C(N)=O)cc3c2cnn3CCN2CCOC(C)C2)n1` (stereo not drawn) [YY22, 4-[3-(1-ethyl-3-methyl-1H-pyrazol-5-yl)-1H-1,2,4-triazol-5-yl]-1-[2-(2-methylmorpholin-4-yl)ethyl]-1H-indazole-6-carboxamide], the EC50 in test [1] and in test [2] was above 33.3 µM each time. In addition, the Ki in test [3] was 491 nM.
With `CCn1nc(C)cc1-c1n[nH]c(-c2cc(C(N)=O)cc3c2cnn3CCN2C3CCC2COC3)n1` [YY23, 4-[3-(1-ethyl-3-methyl-1H-pyrazol-5-yl)-1H-1,2,4-triazol-5-yl]-1-[2-(3-oxa-8-azabicyclo[3.2.1]octan-8-yl)ethyl]-1H-indazole-6-carboxamide], the EC50 in test [1] and in test [2] was above 33.3 µM throughout. This compound also registered a Ki in test [3] of 457 nM.

(Values after patent US12297190B2, “Modulators of STING (stimulator of interferon genes)” (PFIZER INC., priority 2019, dated 2025).)
